From paper PMC11321677, “Reversing MET‐Mediated Resistance in Oncogene‐Driven NSCLC by MET‐Activated Wnt Condensative Prodrug” (Advanced Science, 2024)
Non-standard residues stand in square brackets, D forms with d. Residues, ends and D or L forms follow the SMILES beside them.

Experiments:
[1] = test system: PC-9 OE cells (MET overexpression); test: alamarBlue cell viability; type: cell-based
Description: 1 × 10^8 transducing units (TU) of lentivirus were mixed with 40 µL of HitransG P (PC‐9) or HitransG A (NCI‐H1975) infection enhancement solution and 1 mL of complete medium to infect cells in a 6‐well plate.
In the presented cell experiments, Savolitinib was administered in combination with Gefitinib or Osimertinib at a concentration of 10 µM. The cell viability was determined by alamarBlue assay (Thermo Fisher Scientific).

[2] = test system: PC-9 OE cell xenografts; test: PC-9 OE NSCLC cell xenograft mouse model; type: in vivo, BALB/c nude mice; details: PC-9 OE xenograft, 3 mg kg−1 tail vein every two days, five injections
From the text: To evaluate the inhibitory impact of WntSI on the Wnt/β‐catenin pathway in vivo, we established a model of PC‐9 OE cell xenografts in BALB/c nude mice (Figure S12A, Supporting Information). […] In addition, we evaluated the drug safety of CA and WntSI, including recording the weight fluctuation of mice during the treatment period as well as the detection of hematological and biochemical indicators (Figure S12F–H, Supporting Information). […] Furthermore, we conducted IHC staining and IHC scoring (Figure 5F,G) to explore the expression of c‐Met, β‐catenin pathway‐associated proteins, as well as Ki67 in the tumor tissues. […] In addition, we closely monitored the fluctuations in body weight among the four groups of mice throughout the course of treatment (Figure 5H).
5×10^6 PC‐9 OE cells were subcutaneously injected into the right flanks of BALB/c nude mice aged 5–6 weeks. The tumor volume was calculated using the equation: volume = 1/2 × length × width^2. Once the tumor volume reached 150–180 mm^3, the mice were randomly grouped. The specific groups are as follows: 1) control (PBS), CA (3 mg kg^−1), and WntSI (3 mg kg^−1); the drug was administered via tail vein every two days for a total five injections; 2) control (normal saline), Gefitinib (25 mg kg^−1 d^−1), Gefitinib combined with Savolitinib (2.5 mg kg^−1 d^−1), and Gefitinib combined with WntSI (3 mg kg^−1, every two days) groups; normal saline, Gefitinib, and Savolitinib were administered by daily gavage, while WntSI was administered via tail vein injection every two days. Tumor growth was monitored daily, and xenografts were collected for formalin‐fixed‐paraffin embedded (FFPE) or snap frozen in liquid nitrogen for subsequent experiments.

[3] = test system: PC-9 OE and NCI-H1975 OE cells; test: Colony formation assay; type: cell-based; details: 7–10 days, n = 3
Description: The PC‐9 OE and NCI‐H1975 OE cells were seeded at a low density and cultured in serum‐rich medium containing drugs for 7–10 days to assess clone formation. Subsequently, the culture medium was discarded, and the cell colonies were fixed with methanol, stained with 0.1% crystal violet, and washed with distilled water until the background was clear. The number of colonies was quantified using Image J software.

[4] = target: T1, c-Met (Homo sapiens, UniProt P08581); test: Biotin affinity purification (pull-down) assay; type: binding; details: biotin-labeled Tyr-Pep on streptavidin magnetic beads, lysed PC-9 OE cells, 4 °C, 6 h, western blotting
T1 construct: host or cells: PC-9 OE (PC-9 cells stably transduced with MET OE lentivirus)
T1 sequence (P08581 25-1390): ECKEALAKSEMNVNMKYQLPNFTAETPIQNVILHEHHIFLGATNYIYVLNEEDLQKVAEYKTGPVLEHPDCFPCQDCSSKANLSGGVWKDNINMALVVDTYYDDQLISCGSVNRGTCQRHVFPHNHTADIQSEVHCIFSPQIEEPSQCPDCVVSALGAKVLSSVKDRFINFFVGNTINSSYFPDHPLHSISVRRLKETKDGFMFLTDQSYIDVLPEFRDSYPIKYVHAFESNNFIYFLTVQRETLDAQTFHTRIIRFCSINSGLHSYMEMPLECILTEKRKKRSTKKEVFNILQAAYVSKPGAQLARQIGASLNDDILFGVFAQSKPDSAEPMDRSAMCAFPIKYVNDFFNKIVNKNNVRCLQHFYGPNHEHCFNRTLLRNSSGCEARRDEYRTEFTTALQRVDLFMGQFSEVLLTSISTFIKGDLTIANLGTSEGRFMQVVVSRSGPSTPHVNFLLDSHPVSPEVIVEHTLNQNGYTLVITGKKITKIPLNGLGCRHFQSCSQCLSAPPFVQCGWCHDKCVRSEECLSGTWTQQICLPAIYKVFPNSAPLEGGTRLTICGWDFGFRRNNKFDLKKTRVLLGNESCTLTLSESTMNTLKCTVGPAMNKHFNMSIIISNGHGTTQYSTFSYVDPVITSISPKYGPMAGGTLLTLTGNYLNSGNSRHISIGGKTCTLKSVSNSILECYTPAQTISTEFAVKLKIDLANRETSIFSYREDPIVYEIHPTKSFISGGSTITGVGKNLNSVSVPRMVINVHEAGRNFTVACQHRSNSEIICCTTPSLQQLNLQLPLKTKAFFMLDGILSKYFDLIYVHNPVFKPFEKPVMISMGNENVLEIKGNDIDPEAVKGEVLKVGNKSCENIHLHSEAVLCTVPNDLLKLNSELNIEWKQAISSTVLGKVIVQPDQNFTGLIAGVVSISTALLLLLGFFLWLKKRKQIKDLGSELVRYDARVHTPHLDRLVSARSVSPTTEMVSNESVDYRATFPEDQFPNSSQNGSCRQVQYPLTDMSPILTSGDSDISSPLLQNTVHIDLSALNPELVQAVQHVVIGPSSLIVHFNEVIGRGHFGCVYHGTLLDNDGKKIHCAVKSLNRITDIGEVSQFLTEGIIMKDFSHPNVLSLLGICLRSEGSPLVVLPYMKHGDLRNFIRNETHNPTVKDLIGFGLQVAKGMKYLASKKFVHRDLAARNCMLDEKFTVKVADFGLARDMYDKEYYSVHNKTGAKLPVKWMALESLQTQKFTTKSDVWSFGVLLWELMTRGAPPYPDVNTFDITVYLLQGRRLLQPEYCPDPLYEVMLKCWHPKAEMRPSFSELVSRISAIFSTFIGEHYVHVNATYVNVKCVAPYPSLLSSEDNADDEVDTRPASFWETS
From the text: The process was successfully replicated through a coarse‐grained dynamic simulation involving the interaction between Tyr‐Pep and CA molecules, wherein the emergence of LLPS and subsequent self‐assembly into a condensate were observed (Figure 3B). […] Next, the mass ratio of 1:0.5 (Tyr‐Pep to CA) was selected for the preparation of the Wnt supramolecular inhibitor, WntSI, in order to maximize the utilization of condensate size for passive tumor targeting. […] Furthermore, the successful assembly of WntSI was once again confirmed by both Fourier‐transform infrared (FT‐IR) spectrum analysis (Figure S5C, Supporting Information) and UV–vis absorption spectrum analysis (Figure S5D, Supporting Information), providing compelling evidence through the presence of characteristic absorption peaks associated with peptide and CA. More importantly, as our design WntSI was constructed by a reversible supramolecular self‐assembly driven by LLPS, which can disassemble in response to MET (Figure 3A). Alpha Fold 2.0 accurately predicted the strong bonding ability between Tyr‐Pep and c‐Met, as depicted in Figure 3D. This prediction was further substantiated through co‐immunoprecipitation analysis involving biotin‐labeled Tyr‐Pep and c‐Met, as illustrated in Figure S5E (Supporting Information). […] The concentration of CA in their supernatant after centrifugation at 15 000 g was measured using HPLC. […]

With `C[C@@H](c1ccc2nccn2c1)n1nnc2ncc(-c3cnn(C)c3)nc21` [Savolitinib] the “Impact on the susceptibility of EGFR-TKIs” value [1] was “negligible impact”.
In the case of `CC(C)c1cc2c(c(O)c1O)[C@@]1(C(=O)O)CCCC(C)(C)[C@@H]1CC2` [CA, carnosic acid], the “Levels of ALT and AST” value ([2]; n = 3) is reported as “varying degrees of increase”, the “Levels of white blood cells (WBC), neutrophils and platelets” value ([2]; n = 3) is reported as “significantly lower than those of the control group” and the “Weight growth rate of mice during treatment” value ([2]; n = 5) is reported as “slowed down”.
For `CC[C@H](C)[C@H](NC(=O)[C@H](CC(C)C)NC(=O)[C@H](CC(N)=O)NC(=O)[C@@H](NC(=O)[C@@H](CCC(=O)O)NC(=O)[C@@H](Cc1c[nH]cn1)NC(=O)[C@@H](CCC(=O)O)NC(=O)[C@@H](Cc1c[nH]cn1)NC(=O)[C@@H](CCC(=O)O)NC(=O)[C@H](N)Cc1c[nH]cn1)C(C)C)C(=O)N[C@@H](CC(N)=O)C(=O)N[C@@H](Cc1ccc(O)cc1)C(=O)N[C@@H](CCC(N)=O)C(=O)N[C@@H](CC(=O)O)C(=O)N[C@@H](CC(=O)O)C(=O)N[C@@H](C)C(=O)N[C@@H](CCC(=O)O)C(=O)N[C@@H](CC(C)C)C(=O)N[C@H](Cc1c[nH]cn1)C(=O)N[C@H](Cc1c[nH]cn1)C(=O)N[C@H](Cc1c[nH]cn1)C(=O)N[C@H](CCCNC(=N)N)C(=O)N[C@H](CCCNC(=N)N)C(=O)N[C@H](CCCNC(=N)N)C(=O)N[C@H](CCCNC(=N)N)C(=O)N[C@H](Cc1c[nH]cn1)C(N)=O` [Tyr‐Pep] (H-[dH][dE][dH][dE][dH][dE]VNLINYQDDAEL[dH][dH][dH][dR][dR][dR][dR][dH]-NH2), the “Suppressive effect on clone formation” value [3] was “no impact” and the “Co-immunoprecipitation with c-Met” value [4] was “can be recognized by c‐Met”.
